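Step 1: Grow cells in 96-well plates. Step 2: Expose to compound for 48 hours at 5 concentrations. Step 3: Interpolate endpoints linearly; if unreached, use highest concentration. GI50 is the concentration that inhibits growth by half. TGI is the concentration that stops growth completely.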
Tests used:
Assay in all cases: growth of human tumour cells (NCI), 48 h
IGROV1 ovarian = test system: IGROV1 ovarian
COLO 205 colon = test system: COLO 205 colon
BT-549 breast = test system: BT-549 breast
SK-MEL-2 melanoma = test system: SK-MEL-2 melanoma
HOP-92 NSCLC = test system: HOP-92 NSCLC
NCI-H522 lung = test system: NCI-H522 lung
NCI/ADR-RES ovarian = test system: NCI/ADR-RES ovarian
RXF 393 renal = test system: RXF 393 renal
HCC-2998 colon = test system: HCC-2998 colon
OVCAR-3 ovarian = test system: OVCAR-3 ovarian
HCT-116 colon = test system: HCT-116 colon
A549 NSCLC = test system: A549 NSCLC
PC-3 prostate = test system: PC-3 prostate
U251 CNS = test system: U251 CNS
SF-295 CNS = test system: SF-295 CNS
OVCAR-4 ovarian = test system: OVCAR-4 ovarian
MDA-MB-435 = test system: MDA-MB-435
MOLT-4 leukemia = test system: MOLT-4 leukemia
CCRF-CEM leukemia = test system: CCRF-CEM leukemia
SK-MEL-5 melanoma = test system: SK-MEL-5 melanoma
HS 578T breast = test system: HS 578T breast
OVCAR-5 ovarian = test system: OVCAR-5 ovarian
SN12C renal = test system: SN12C renal
NCI-H460 lung = test system: NCI-H460 lung
DU-145 prostate = test system: DU-145 prostate
UACC-62 melanoma = test system: UACC-62 melanoma
MDA-MB-231 breast = test system: MDA-MB-231 breast
MCF7 breast = test system: MCF7 breast
OVCAR-8 ovarian = test system: OVCAR-8 ovarian
HT29 colon = test system: HT29 colon
CAKI-1 renal = test system: CAKI-1 renal
UO-31 renal = test system: UO-31 renal
K-562 leukemia = test system: K-562 leukemia
TK-10 renal = test system: TK-10 renal
786-0 renal = test system: 786-0 renal
HOP-62 NSCLC = test system: HOP-62 NSCLC
T-47D breast = test system: T-47D breast
UACC-257 melanoma = test system: UACC-257 melanoma
EKVX NSCLC = test system: EKVX NSCLC
ACHN renal = test system: ACHN renal
HCT-15 colon = test system: HCT-15 colon
NCI-H23 lung = test system: NCI-H23 lung
SNB-75 CNS = test system: SNB-75 CNS
KM12 colon = test system: KM12 colon
SF-268 CNS = test system: SF-268 CNS
M14 melanoma = test system: M14 melanoma
RPMI-8226 leukemia = test system: RPMI-8226 leukemia
SK-MEL-28 melanoma = test system: SK-MEL-28 melanoma
A498 renal = test system: A498 renal
SF-539 CNS = test system: SF-539 CNS
SW-620 colon = test system: SW-620 colon
LOX IMVI melanoma = test system: LOX IMVI melanoma
NCI-H226 lung = test system: NCI-H226 lung
HL-60(TB) leukemia = test system: HL-60(TB) leukemia
MALME-3M melanoma = test system: MALME-3M melanoma
SNB-19 CNS = test system: SNB-19 CNS
SK-OV-3 ovarian = test system: SK-OV-3 ovarian

Which results are given for `O=C1NC(=O)N(S(=O)(=O)c2cc(C(=O)Nc3ccc(Cl)cc3)c(Cl)cc2S)S(=O)(=O)N1`?
GI50 (IGROV1 ovarian): 24.1 µM; TGI (IGROV1 ovarian): 51.6 µM; GI50 (COLO 205 colon): 11 µM; TGI (COLO 205 colon): > 100 µM; GI50 (BT-549 breast): 20.5 µM; TGI (BT-549 breast): 45.7 µM; GI50 (SK-MEL-2 melanoma): 27.7 µM; TGI (SK-MEL-2 melanoma): 66.1 µM; GI50 (HOP-92 NSCLC): 12.9 µM; TGI (HOP-92 NSCLC): 44.3 µM; GI50 (NCI-H522 lung): 21.1 µM; TGI (NCI-H522 lung): 50.6 µM; GI50 (NCI/ADR-RES ovarian): 28.1 µM; TGI (NCI/ADR-RES ovarian): 85.6 µM; GI50 (RXF 393 renal): 0.67 µM; TGI (RXF 393 renal): 18.2 µM; GI50 (HCC-2998 colon): 12.9 µM; TGI (HCC-2998 colon): 30 µM; GI50 (OVCAR-3 ovarian): 19.2 µM; TGI (OVCAR-3 ovarian): 36.1 µM; GI50 (HCT-116 colon): 19.4 µM; TGI (HCT-116 colon): 35.4 µM; GI50 (A549 NSCLC): 25.1 µM; TGI (A549 NSCLC): 55.6 µM; GI50 (PC-3 prostate): 17.8 µM; TGI (PC-3 prostate): 52 µM; GI50 (U251 CNS): 15.1 µM; TGI (U251 CNS): 34.3 µM; GI50 (SF-295 CNS): 23.4 µM; TGI (SF-295 CNS): 43.1 µM; GI50 (OVCAR-4 ovarian): 24.2 µM; TGI (OVCAR-4 ovarian): > 100 µM; GI50 (MDA-MB-435): 18.5 µM; TGI (MDA-MB-435): 34.3 µM; GI50 (MOLT-4 leukemia): 19.4 µM; TGI (MOLT-4 leukemia): 47.6 µM; GI50 (CCRF-CEM leukemia): 8.53 µM; TGI (CCRF-CEM leukemia): 26.9 µM; GI50 (SK-MEL-5 melanoma): 13.1 µM; TGI (SK-MEL-5 melanoma): 28.5 µM; GI50 (HS 578T breast): 21.1 µM; TGI (HS 578T breast): 55.4 µM; GI50 (OVCAR-5 ovarian): 19.4 µM; TGI (OVCAR-5 ovarian): 35.3 µM; GI50 (SN12C renal): 21.9 µM; TGI (SN12C renal): 50.2 µM; GI50 (NCI-H460 lung): 16.3 µM; TGI (NCI-H460 lung): 40.3 µM; GI50 (DU-145 prostate): 16.5 µM; TGI (DU-145 prostate): 31.2 µM; GI50 (UACC-62 melanoma): 6.67 µM; TGI (UACC-62 melanoma): 23.6 µM; GI50 (MDA-MB-231 breast): 25.2 µM; TGI (MDA-MB-231 breast): 74.5 µM; GI50 (MCF7 breast): 23.6 µM; TGI (MCF7 breast): 91.8 µM; GI50 (OVCAR-8 ovarian): 24.8 µM; TGI (OVCAR-8 ovarian): 64.4 µM; GI50 (HT29 colon): 23.8 µM; TGI (HT29 colon): > 100 µM; GI50 (CAKI-1 renal): 19 µM; TGI (CAKI-1 renal): 35.4 µM; GI50 (UO-31 renal): 19.6 µM; TGI (UO-31 renal): 46.5 µM; GI50 (K-562 leukemia): 12.3 µM; TGI (K-562 leukemia): 34.1 µM; GI50 (TK-10 renal): 23.8 µM; TGI (TK-10 renal): 45.5 µM; GI50 (786-0 renal): 17.9 µM; TGI (786-0 renal): 33.7 µM; GI50 (HOP-62 NSCLC): 18.3 µM; TGI (HOP-62 NSCLC): 37.4 µM; GI50 (T-47D breast): 6.65 µM; TGI (T-47D breast): 55.7 µM; GI50 (UACC-257 melanoma): 17.5 µM; TGI (UACC-257 melanoma): 37.1 µM; GI50 (EKVX NSCLC): 18.3 µM; TGI (EKVX NSCLC): 38.9 µM; GI50 (ACHN renal): 21.6 µM; TGI (ACHN renal): 43.7 µM; GI50 (HCT-15 colon): 18.9 µM; TGI (HCT-15 colon): 36.5 µM; GI50 (NCI-H23 lung): 18.5 µM; TGI (NCI-H23 lung): 34.3 µM; GI50 (SNB-75 CNS): 38.9 µM; TGI (SNB-75 CNS): > 100 µM; GI50 (KM12 colon): 18.6 µM; TGI (KM12 colon): 34.8 µM; GI50 (SF-268 CNS): 16.9 µM; TGI (SF-268 CNS): 46.6 µM; GI50 (M14 melanoma): 16.2 µM; TGI (M14 melanoma): 31.6 µM; GI50 (RPMI-8226 leukemia): 17.7 µM; TGI (RPMI-8226 leukemia): 55.7 µM; GI50 (SK-MEL-28 melanoma): 14.6 µM; TGI (SK-MEL-28 melanoma): > 100 µM; GI50 (A498 renal): 15.5 µM; TGI (A498 renal): 30.1 µM; GI50 (SF-539 CNS): 19.7 µM; TGI (SF-539 CNS): 39.3 µM; GI50 (SW-620 colon): 20.4 µM; TGI (SW-620 colon): 44.5 µM; GI50 (LOX IMVI melanoma): 17 µM; TGI (LOX IMVI melanoma): 34.3 µM; GI50 (NCI-H226 lung): 22.2 µM; TGI (NCI-H226 lung): 56.1 µM

`CCOC(=O)c1c(C)n(-c2ccc(C)cc2)c(=O)c2ccccc2c(=O)c2c(=O)ccc(=O)c1=2` was tested. Which TGI (IGROV1 ovarian) did it give?
The TGI was over 100 µM.

What about the TGI (COLO 205 colon) of the same molecule?
Its TGI is 36.1 µM.

And the TGI (BT-549 breast)?
The TGI was 57.9 µM.

And the TGI (SK-MEL-2 melanoma)?
Its TGI is 61 µM.

And the TGI (HOP-92 NSCLC)?
Its TGI is 38.2 µM.

And the TGI (NCI-H522 lung)?
Its TGI is 42.6 µM.

And the TGI (NCI/ADR-RES ovarian)?
Its TGI is 58.4 µM.

What about the TGI (RXF 393 renal) of the same molecule?
The TGI was 41.3 µM.

What about the TGI (HCC-2998 colon) of the same molecule?
The TGI was 27.7 µM.

What about the TGI (OVCAR-3 ovarian) of the same molecule?
Its TGI is 29.8 µM.

What about the TGI (HCT-116 colon) of the same molecule?
The TGI was 33.3 µM.

And the TGI (A549 NSCLC)?
Its TGI is 58.1 µM.

What about the TGI (HL-60(TB) leukemia) of the same molecule?
The TGI was 40.8 µM.

And the TGI (PC-3 prostate)?
The TGI was 56.6 µM.

What about the TGI (U251 CNS) of the same molecule?
Its TGI is 44.9 µM.

What about the TGI (OVCAR-4 ovarian) of the same molecule?
Its TGI is 58.5 µM.

What about the TGI (MDA-MB-435) of the same molecule?
Its TGI is 30.2 µM.

And the TGI (MOLT-4 leukemia)?
Its TGI is 11.4 µM.

What about the TGI (CCRF-CEM leukemia) of the same molecule?
The TGI was over 100 µM.

And the TGI (MALME-3M melanoma)?
Its TGI is 32.5 µM.

And the TGI (SK-MEL-5 melanoma)?
The TGI was 30.4 µM.

And the TGI (HS 578T breast)?
The TGI was 44.7 µM.

And the TGI (OVCAR-5 ovarian)?
Its TGI is 75.5 µM.

And the TGI (SN12C renal)?
Its TGI is 66.7 µM.

And the TGI (NCI-H460 lung)?
The TGI was 44.9 µM.

And the TGI (DU-145 prostate)?
Its TGI is 39.3 µM.

What about the TGI (UACC-62 melanoma) of the same molecule?
Its TGI is 52 µM.

And the TGI (MDA-MB-231 breast)?
The TGI was over 100 µM.

What about the TGI (MCF7 breast) of the same molecule?
Its TGI is 63.9 µM.

And the TGI (OVCAR-8 ovarian)?
Its TGI is 33.6 µM.

And the TGI (HT29 colon)?
Its TGI is 38.7 µM.

And the TGI (SNB-19 CNS)?
Its TGI is 51.7 µM.

And the TGI (CAKI-1 renal)?
Its TGI is 28.1 µM.

And the TGI (UO-31 renal)?
Its TGI is over 100 µM.

And the TGI (K-562 leukemia)?
Its TGI is 32.1 µM.

What about the TGI (TK-10 renal) of the same molecule?
The TGI was 29.4 µM.

What about the TGI (786-0 renal) of the same molecule?
The TGI was over 100 µM.

And the TGI (HOP-62 NSCLC)?
Its TGI is 46 µM.

What about the TGI (T-47D breast) of the same molecule?
Its TGI is 72.2 µM.

What about the TGI (UACC-257 melanoma) of the same molecule?
Its TGI is 51.2 µM.

And the TGI (SK-OV-3 ovarian)?
Its TGI is 73.3 µM.

What about the TGI (EKVX NSCLC) of the same molecule?
The TGI was 80 µM.

What about the TGI (ACHN renal) of the same molecule?
Its TGI is 31.9 µM.

And the TGI (HCT-15 colon)?
The TGI was 35.1 µM.

And the TGI (NCI-H23 lung)?
Its TGI is 32 µM.

What about the TGI (SNB-75 CNS) of the same molecule?
Its TGI is 81.7 µM.

What about the TGI (KM12 colon) of the same molecule?
The TGI was 30.3 µM.

And the TGI (SF-268 CNS)?
Its TGI is 54.2 µM.

What about the TGI (M14 melanoma) of the same molecule?
Its TGI is 42.9 µM.

What about the TGI (RPMI-8226 leukemia) of the same molecule?
The TGI was 24.9 µM.

What about the TGI (SK-MEL-28 melanoma) of the same molecule?
Its TGI is 27.1 µM.

What about the TGI (SF-539 CNS) of the same molecule?
The TGI was 43.7 µM.

And the TGI (SW-620 colon)?
The TGI was 49.9 µM.

What about the TGI (LOX IMVI melanoma) of the same molecule?
The TGI was 36.4 µM.

What about the TGI (NCI-H226 lung) of the same molecule?
Its TGI is 59.7 µM.

Source: PubChem BioAssay (NCI)
